Reference: patent US20260295053A1, “COMPOUNDS FOR DEGRADATION AND INHIBITION OF KRAS (G12D) PROTEIN” (Shenzhen Ionova Life Science Co., Ltd., priority 2023, published 2026)

Legend:
KRAS (G12D) = biological target: T1, KRAS (G12D) (Homo sapiens, UniProt P01116, G12D); assay: KRAS (G12D) cellular degradation assay in AsPC-1 cells; type: cell-based; conditions: 24 hours, antibody fluorescence (Odyssey CLX), DC50 half-maximal degradation concentration
T1 construct: in-cell western with KRAS G12D antibody after 24 h
In short: (§1)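 AsPC-1 cells: for degradation, grown to ~90% confluency, treated 24 h with 1:3 compound series ([…] to 1.5 nM), then fixed and immunostained for KRAS G12D and β-actin, read by infrared fluorescence, DC50 fitted. Proliferation: 3,500 cells/well, 6-day treatment, CellTiter Glo luminescence, IC50 fitted.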

AsPC-1 cells = assay: AsPC-1 cell proliferation assay (CellTiter Glo); type: cell-based; conditions: Homo sapiens, ASPC1, 144 h, 6 days
In short: as §1

T1 sequence (P01116 1-188 isoform P01116-2 G12D): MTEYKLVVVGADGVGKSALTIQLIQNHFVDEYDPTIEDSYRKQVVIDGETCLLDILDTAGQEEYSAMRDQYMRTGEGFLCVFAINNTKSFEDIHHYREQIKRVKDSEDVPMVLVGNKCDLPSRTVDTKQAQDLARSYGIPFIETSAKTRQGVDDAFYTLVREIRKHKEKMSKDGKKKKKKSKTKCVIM

DC50 (KRAS (G12D)) [nM]	IC50 (AsPC-1 cells) [nM]	SMILES
< 10	< 10	CCn1cc2c(C#C[C@H](CO)NC(=O)[C@@H]3C[C@@H](O)CN3C(=O)[C@H](C(C)C)n3cc(-c4ccc(COc5c(-c6c(C)c(F)cc7[nH]ncc67)c(C6CC6)cc6c(N7C[C@@H]8C[C@H]7CN8)nc(OC[C@H](C)OC)nc56)cc4)nn3)cccc2n1 [Example 162, (2S,4R)-1-((2S)-2-(4-(4-(((4-((1S,4S)-2,5-diazabicyclo[2.2.1]heptan-2-yl)-6-cyclopropyl-7-(6-fluoro-5-methyl-1H-indazol-4-yl)-2-((S)-2-methoxypropoxy)quinazolin-8-yl)oxy)methyl)phenyl)-1H-1,2,3-triazol-1-yl)-3-methylbutanoyl)-N—((R)-4-(2-ethyl-2H-indazol-4-yl)-1-hydroxybut-3-yn-2-yl)-4-hydroxypyrrolidine-2-carboxamide]
< 10	< 10	CCn1nccc1-c1ccc([C@H](CO)NC(=O)[C@@H]2C[C@@H](O)CN2C(=O)[C@H](C(C)C)n2cc(-c3ccc(COc4c(-c5c(C)c(F)cc6[nH]ncc56)c(C5CC5)cc5c(N6C[C@@H]7C[C@H]6CN7)nc(OC6CCC(OC)CC6)nc45)cc3)nn2)cc1 (stereo partly drawn) [Example 70, (2S,4R)-1-((2S)-2-(4-(4-(((4-((1S,4S)-2,5-diazabicyclo[2.2.1]heptan-2-yl)-6-cyclopropyl-7-(6-fluoro-5-methyl-1H-indazol-4-yl)-2-((4-methoxycyclohexyl)oxy)quinazolin-8-yl)oxy)methyl)phenyl)-1H-1,2,3-triazol-1-yl)-3-methylbutanoyl)-N—((R)-1-(4-(1-ethyl-1H-pyrazol-5-yl)phenyl)-2-hydroxyethyl)-4-hydroxypyrrolidine-2-carboxamide]
< 10	< 10	Cc1ncsc1-c1ccc([C@H](CO)NC(=O)[C@@H]2C[C@@H](O)CN2C(=O)[C@H](C(C)C)n2cc(-c3ccc(COc4c(-c5c(C)c(F)cc6[nH]ncc56)c(C5CC5)cc5c(N6CC7CCC(C6)N7)nc(OC6CCOCC6)nc45)cc3)nn2)cc1 [Example 49, (2S,4R)-1-((2S)-2-(4-(4-(((4-(3,8-diazabicyclo[3.2.1]octan-3-yl)-6-cyclopropyl-7-(6-fluoro-5-methyl-1H-indazol-4-yl)-2-((tetrahydro-2H-pyran-4-yl)oxy)quinazolin-8-yl)oxy)methyl)phenyl)-1H-1,2,3-triazol-1-yl)-3-methylbutanoyl)-4-hydroxy-N—((R)-2-hydroxy-1-(4-(4-methylthiazol-5-yl)phenyl)ethyl)pyrrolidine-2-carboxamide]
10 to 100	10 to 100	CO[C@@H](C)COc1nc(N2C[C@H]3C[C@@H]2CN3)c2cc(C3CC3)c(-c3c(C)c(F)cc4[nH]ncc34)c(OCc3ccc(-c4cn([C@H](C(=O)N5C[C@H](O)C[C@H]5C(=O)NCc5ccc(-c6scnc6C)cc5)C(C)C)nn4)cc3)c2n1 (single isomer, unassigned) [Example 11A]
< 10	< 10	CO[C@@H](C)COc1nc(N2C[C@@H]3C[C@H]2CN3)c2cc(C3CC3)c(-c3c(C)c(F)cc4[nH]ncc34)c(OCc3ccc(-c4cn([C@H](C(=O)N5C[C@H](O)C[C@H]5C(=O)N[C@H](C#Cc5cccc6nn(C)cc56)CO)C(C)C)nn4)cc3)c2n1 [Example 116, (2S,4R)-1-((2S)-2-(4-(4-(((4-((1S,4S)-2,5-diazabicyclo[2.2.1]heptan-2-yl)-6-cyclopropyl-7-(6-fluoro-5-methyl-1H-indazol-4-yl)-2-((S)-2-methoxypropoxy)quinazolin-8-yl)oxy)methyl)phenyl)-1H-1,2,3-triazol-1-yl)-3-methylbutanoyl)-4-hydroxy-N—((R)-1-hydroxy-4-(2-methyl-2H-indazol-4-yl)but-3-yn-2-yl)pyrrolidine-2-carboxamide]
< 10	< 10	CCn1nccc1-c1ccc([C@@H](NC(=O)[C@@H]2C[C@@H](O)CN2C(=O)[C@H](C(C)C)n2cc(-c3ccc(COc4c(-c5c(C)c(F)cc6[nH]ncc56)c(C5CC5)cc5c(N(C)[C@@H]6CCNC6)nc(OC[C@H](C)OC)nc45)cc3)nn2)[C@H](C)O)c2c1CC2 [Example 186, (2S,4R)-1-((2S)-2-(4-(4-(((6-cyclopropyl-7-(6-fluoro-5-methyl-1H-indazol-4-yl)-2-((S)-2-methoxypropoxy)-4-(methyl((R)-pyrrolidin-3-yl)amino)quinazolin-8-yl)oxy)methyl)phenyl)-1H-1,2,3-triazol-1-yl)-3-methylbutanoyl)-N-((1R,2S)-1-(5-(1-ethyl-1H-pyrazol-5-yl)bicyclo[4.2.0]octa-1(6),2,4-trien-2-yl)-2-hydroxypropyl)-4-hydroxypyrrolidine-2-carboxamide]
< 10	< 10	CCn1nccc1-c1ccc([C@H](CO)NC(=O)[C@@H]2C[C@@H](O)CN2C(=O)[C@H](C(C)C)n2cc(-c3ccc(COc4c(-c5c(C)c(F)c(F)c6[nH]ncc56)c(C5CC5)cc5c(N6C[C@@H]7C[C@H]6CN7)nc(O[C@H]6CC[C@H](OC)CC6)nc45)cc3)nn2)cc1 [Example 99, (2S,4R)-1-((2S)-2-(4-(4-(((4-((1S,4S)-2,5-diazabicyclo[2.2.1]heptan-2-yl)-6-cyclopropyl-7-(6,7-difluoro-5-methyl-1H-indazol-4-yl)-2-(((1r,4S)-4-methoxycyclohexyl)oxy)quinazolin-8-yl)oxy)methyl)phenyl)-1H-1,2,3-triazol-1-yl)-3-methylbutanoyl)-N—((R)-1-(4-(1-ethyl-1H-pyrazol-5-yl)phenyl)-2-hydroxyethyl)-4-hydroxypyrrolidine-2-carboxamide]
< 10	< 10	CCn1nccc1-c1ccc([C@@H](NC(=O)[C@@H]2C[C@@H](O)CN2C(=O)[C@H](C(C)C)n2cc(-c3ccc(COc4c(-c5c(C)c(F)cc6[nH]ncc56)c(C5CC5)cc5c(N6CCNCC[C@H]6C)nc(OC[C@H](C)OC)nc45)cc3)nn2)[C@H](C)O)cc1 [Example 201, (2S,4R)-1-((2S)-2-(4-(4-(((6-cyclopropyl-7-(6-fluoro-5-methyl-1H-indazol-4-yl)-2-((S)-2-methoxypropoxy)-4-((R)-7-methyl-1,4-diazepan-1-yl)quinazolin-8-yl)oxy)methyl)phenyl)-1H-1,2,3-triazol-1-yl)-3-methylbutanoyl)-N-((1R,2S)-1-(4-(1-ethyl-1H-pyrazol-5-yl)phenyl)-2-hydroxypropyl)-4-hydroxypyrrolidine-2-carboxamide]
< 10	< 10	Cc1ncsc1-c1ccc([C@@H](NC(=O)[C@@H]2C[C@@H](O)CN2C(=O)[C@H](C(C)C)n2cc(-c3ccc(COc4c(-c5c(C)c(F)cc6[nH]ncc56)c(C5CC5)cc5c(N6C[C@@H]7C[C@H]6CN7)nc(OC6CC7(COC7)C6)nc45)cc3)nn2)[C@@H](C)O)cc1 [Example 150, (2S,4R)-1-((2S)-2-(4-(4-(((2-((2-oxaspiro[3.3]heptan-6-yl)oxy)-4-((1S,4S)-2,5-diazabicyclo[2.2.1]heptan-2-yl)-6-cyclopropyl-7-(6-fluoro-5-methyl-1H-indazol-4-yl)quinazolin-8-yl)oxy)methyl)phenyl)-1H-1,2,3-triazol-1-yl)-3-methylbutanoyl)-4-hydroxy-N-((1R,2R)-2-hydroxy-1-(4-(4-methylthiazol-5-yl)phenyl)propyl)pyrrolidine-2-carboxamide]
